Among the data in patent US11890288B2, “Sulfonamide or sulfinamide compound having effect of inducing BRD4 protein degradation and pharmaceutical use thereof” (MITSUBISHI TANABE PHARMA CORPORATION, priority 2020, dated 2024) are DC50 and IC50 values, retold here.

One test addresses BRD4 protein (Homo sapiens (Human), UniProt O60885). Nature of the test: BRD4 protein degradation inducing action in LNCaP cells (immunofluorescence, 6 hr). The conditions noted are these: anti-BRD4 fluorescence intensity. In kind it is cell-based. How it is done:
The degradation inducing action of the compound of the present invention on BRD4 proteins in cancer cells was evaluated in vitro using human prostate cancer LNCaP cells. LNCaP cells were suspended in 10% FBS/RPMI1640, seeded in a 96 well Cell carrier plate (Perkin Elmer) and cultured at 5% CO2, 37° C. overnight. A test compound dissolved in DMSO was diluted with 10% FBS/RPMI1640 and added and the cells were further cultured for 6 hr. After culturing, the cells were immobilized with 4% para-formaldehyde/PBS and further subjected to a permeation treatment with 0.25% Triton X-100/PBS. Thereafter, the cells were blocked with 10% BSA/PBS, Anti-BRD4 (Sigma-Aldrich) solution was added and the cells were incubated at 4° C. overnight. Furthermore, Goat anti-Rabbit IgG(H+L) Cross-Adsorbed Secondary Antibody, Alexa Fluor 546 (Thermo Fisher Scientific) solution, 0.5 μg/mL Hoechst 33342 (Sigma-Aldrich), and 14 μM Acti-Stain 555 Fluorescent Phalloidin (Cytoskeleton) were added. After incubation for 1 hr, BRD4 protein amount was measured by Operetta (Perkin Elmer) as fluorescence intensity (excitation: 560 nm, emission: 572 nm). The BRD4 protein degradation inducing activity of the compound of the present invention in LNCaP cells is shown in DC50 value in Table 3. The DC50 value is a concentration of the compound showing 50% fluorescence intensity when the fluorescence intensity thereof under compound untreated condition is 100%. It was calculated from the straight line connecting the fluorescence intensity at two points enclosing the 50% fluorescence intensity and the compound concentration.

In test [1] the test system is human prostate cancer LNCaP cells. In words: Cytotoxic action on LNCaP cells (WST-8, 96 hr). In kind it is cell-based. The conditions noted are these: 96 hr culture. How it is done: The cytotoxic action of the compound of the present invention against human cancer cells was evaluated in vitro. In this experiment, (+)-JQ1 (Nature volume 468, pages 1067-1073 (23 Dec. 2010)) known to have an inhibitory activity on the binding of BRD4 protein and a ligand therefor was used as a positive control drug. Respective cells were suspended in 10% FBS/RPMI1640, seeded in a 96 well plate and cultured at 5% CO2, 37° C. overnight. A test compound dissolved in DMSO was diluted with 10% FBS/RPMI1640 and added and the cells were further cultured for 96 hr. After culturing, the viable cell number was measured using a cell number measurement WST-8 kit (Kishida Chemical Co., Ltd.). As a control, the measurement was performed under conditions free of the test compound. The cytotoxic activity of the compound of the present invention against human prostate cancer LNCaP cells is shown in IC50 value in Table 1. The IC50 value is a concentration of the compound showing 50% cell survival rate when the cell survival rate thereof under compound untreated condition is 100%. It was calculated from the straight line connecting the cell survival rate at two points enclosing the 50% cell survival rate and the compound concentration. In addition, the cytotoxic activity against respective cancer cells of human acute myeloid leukemia MV-4-11 cell, human chronic myeloid leukemia K562 cell, human multiple myeloma MM.1S cell, human diffuse large B-cell lymphoma SU-DHL-6 cell, human T-cell leukemia Jurkat cells, human Burkitt lymphoma Raji cell, human castration-resistant prostate cancer PC-3 cell, human AR-V7 positive castration-resistant prostate cancer 22Rv1 cell, human ovarian cancer A2780 cell, human cisplatin-resistant ovarian cancer SK-OV-03 cell, human bladder cancer 5637 cell, human breast cancer ZR-75-1 cell, human triple negative breast cancer MDA-MB-231 cell, human uterus cervix cancer HeLa cell, human uterine sarcoma MES-SA cell, human stomach cancer SNU-16 cell, human non-small cell lung cancer NCI-H2126 cell, human EGFRT790M mutation-positive non-small cell lung cancer NCI-H1975 cell, human small cell lung cancer NCI-H82 cell, human large cell lung cancer NCI-H460 cell, human colon cancer HCT116 cell, human glioma U-87 MG cell, human pancreatic cancer BxPC-3 cell, human liver cancer HLF cell, human bile duct cancer HuCCT1 cell, human renal cell cancer 786-O cell, and human fibrosarcoma HT1080 cell is shown in IC50 value in Table 2.
(Tetrazolium dyes change colour on reduction, which living cells bring about.)

Regarding `Cc1sc2c(c1C)C(c1ccc(-c3ccc(C(=O)NCc4ccc(S(=O)(=O)Nc5ccc(C)c6c(C#N)c[nH]c56)cc4)cc3)cc1)=N[C@@H](CC(=O)N(C)C)c1nnc(C)n1-2` [Example 38, N-({4-[(3-cyano-4-methyl-1H-indol-7-yl)sulfamoyl]phenyl}methyl)-4′-{(6S)-6-[2-(dimethylamino)-2-oxoethyl]-2,3,9-trimethyl-6H-thieno[3,2-f][1,2,4]triazolo[4,3-a][1,4]diazepin-4-yl}[1,1′-biphenyl]-4-carboxamide], the DC50 (in general, the concentration at which degradation of the target reaches its halfway point) at BRD4 protein is 5.6 nM. In addition, in test [1], the IC50 (as a rule, the concentration that gives 50% inhibition) stood at 5.8 nM.

On BRD4 protein, `COC(=O)C[C@@H]1N=C(c2ccc(C3=CCN(C(=O)NCc4ccc(S(=O)(=O)Nc5ccc(C)c6c(C#N)c[nH]c56)cc4)CC3)cc2)c2c(sc(C)c2C)-n2c(C)nnc21` [Example 21, methyl [(6S)-4-(4-{1-[({4-[(3-cyano-4-methyl-1H-indol-7-yl)sulfamoyl]phenyl}methyl)carbamoyl]-1,2,3,6-tetrahydropyridin-4-yl}phenyl)-2,3,9-trimethyl-6H-thieno[3,2-f][1,2,4]triazolo[4,3-a][1,4]diazepin-6-yl]acetate] displayed a 50% degradation concentration (DC50) of 6.7 nM. Also, the IC50 in test [1] came to 9.8 nM.

At BRD4 protein, `COC(=O)C[C@@H]1N=C(c2ccc(-c3cc(F)c(C(=O)N[C@H](C)c4ccc(S(=O)(=O)Nc5ccc(C)c6c(C#N)c[nH]c56)cc4)cc3F)cc2)c2c(sc(C)c2C)-n2c(C)nnc21` [Example 97, methyl [(6S)-4-(4′-{[(1R)-1-{4-[(3-cyano-4-methyl-1H-indol-7-yl)sulfamoyl]phenyl}ethyl]carbamoyl}-2′,5′-difluoro[1,1′-biphenyl]-4-yl)-2,3,9-trimethyl-6H-thieno[3,2-f][1,2,4]triazolo[4,3-a][1,4]diazepin-6-yl]acetate] yielded a DC50 of 0.064 nM. Moreover, in test [1], half-maximal inhibition (IC50) required 0.12 nM.

For `Cc1sc2c(c1C)C(c1ccc(-c3ccc(C(=O)NCc4ccc(S(=O)(=O)Nc5ccc(C)c6c(C#N)c[nH]c56)cc4)c(Cl)c3)cc1)=N[C@@H](CC(=O)OC(C)(C)C)c1nnc(C)n1-2` [Example Compound 140, t-butyl [(6S)-4-{3′-chloro-4′-[({4-[(3-cyano-4-methyl-1H-indol-7-yl)sulfamoyl]phenyl}methyl)carbamoyl][1,1′-biphenyl]-4-yl}-2,3,9-trimethyl-6H-thieno[3,2-f][1,2,4]triazolo[4,3-a][1,4]diazepin-6-yl]acetate], at BRD4 protein, the DC50 amounted to 0.38 nM. For the same compound, the IC50 in test [1] is 0.52 nM.

In the case of `CCc1ccc(NS(=O)(=O)c2ccc(CNC(=O)c3ccc(-c4ccc(C5=N[C@@H](CC(=O)OC)c6nnc(C)n6-c6sc(C)c(C)c65)cc4)cc3Cl)cc2)c2[nH]cc(C#N)c12` [Example 113, methyl [(6S)-4-{3′-chloro-4′-[({4-[(3-cyano-4-ethyl-1H-indol-7-yl)sulfamoyl]phenyl}methyl)carbamoyl][1,1′-biphenyl]-4-yl}-2,3,9-trimethyl-6H-thieno[3,2-f][1,2,4]triazolo[4,3-a][1,4]diazepin-6-yl]acetate], half-maximal degradation on BRD4 protein (DC50) was put at 0.33 nM. Moreover, in test [1], the IC50 was 0.3 nM.

As for `COC(=O)C[C@@H]1N=C(c2ccc(-c3cc(C)c(C(=O)N[C@H](C)c4ccc(S(=O)(=O)Nc5ccc(C)c6c(C#N)c[nH]c56)cc4)cc3F)cc2)c2c(sc(C)c2C)-n2c(C)nnc21` [Example 98, methyl [(6S)-4-(4′-{[(1R)-1-{4-[(3-cyano-4-methyl-1H-indol-7-yl)sulfamoyl]phenyl}ethyl]carbamoyl}-2′-fluoro-5′-methyl[1,1′-biphenyl]-4-yl)-2,3,9-trimethyl-6H-thieno[3,2-f][1,2,4]triazolo[4,3-a][1,4]diazepin-6-yl]acetate], it took 0.098 nM to reach half-maximal degradation on BRD4 protein (DC50). For the same compound, in test [1], the IC50 is 0.22 nM.

In turn, `COC(=O)C[C@@H]1N=C(c2ccc(-c3cnc(C(=O)NCc4ccc(S(=O)(=O)Nc5ccc(C)c6c(C#N)c[nH]c56)cc4)c(F)c3)cc2)c2c(sc(C)c2C)-n2c(C)nnc21` [Example 77, methyl [(6S)-4-(4-{6-[({4-[(3-cyano-4-methyl-1H-indol-7-yl)sulfamoyl]phenyl}methyl)carbamoyl]-5-fluoropyridin-3-yl}phenyl)-2,3,9-trimethyl-6H-thieno[3,2-f][1,2,4]triazolo[4,3-a][1,4]diazepin-6-yl]acetate] registered a 50% degradation concentration (DC50) at BRD4 protein of 0.048 nM. The same compound yielded an IC50 in test [1] of 0.16 nM.

With `COC(=O)C[C@@H]1N=C(c2ccc(-c3ccc(C(=O)N[C@H](C)c4ccc(S(=O)(=O)Nc5ccc(C)c6c(C#N)c[nH]c56)cc4)c(Cl)c3)cc2)c2c(sc(C)c2C)-n2c(C)nnc21` [Example 70, methyl [(6S)-4-(3′-chloro-4′-{[(1R)-1-{4-[(3-cyano-4-methyl-1H-indol-7-yl)sulfamoyl]phenyl}ethyl]carbamoyl}[1,1′-biphenyl]-4-yl)-2,3,9-trimethyl-6H-thieno[3,2-f][1,2,4]triazolo[4,3-a][1,4]diazepin-6-yl]acetate], the 50% degradation concentration (DC50) at BRD4 protein was found to be 0.13 nM. Further, the midpoint of inhibition in test [1], the IC50, lay at 0.23 nM.

At BRD4 protein, `Cc1cc(C(=O)NCc2ccc(S(=O)(=O)Nc3ccc(C)c4c(C#N)c[nH]c34)cc2)ccc1-c1ccc(C2=N[C@@H](CC(=O)OC(C)(C)C)c3nnc(C)n3-c3sc(C)c(C)c32)cc1` [Example Compound 144, t-butyl [(6S)-4-{4′-[({4-[(3-cyano-4-methyl-1H-indol-7-yl)sulfamoyl]phenyl}methyl)carbamoyl]-2′-methyl[1,1′-biphenyl]-4-yl}-2,3,9-trimethyl-6H-thieno[3,2-f][1,2,4]triazolo[4,3-a][1,4]diazepin-6-yl]acetate] yielded a DC50 of 0.59 nM. This compound also yielded a 50% inhibitory concentration (IC50) in test [1] of 1.2 nM.

As to `Cc1sc2c(c1C)C(c1ccc(-c3ccc(C(=O)NCc4ccc(S(=O)(=O)Nc5ccc(C)c6c(C#N)c[nH]c56)cc4)cc3Cl)cc1)=N[C@@H](CC(=O)OC(C)(C)C)c1nnc(C)n1-2` [Example Compound 143, t-butyl [(6S)-4-{2′-chloro-4′-[({4-[(3-cyano-4-methyl-1H-indol-7-yl)sulfamoyl]phenyl}methyl)carbamoyl][1,1′-biphenyl]-4-yl}-2,3,9-trimethyl-6H-thieno[3,2-f][1,2,4]triazolo[4,3-a][1,4]diazepin-6-yl]acetate], the DC50 at BRD4 protein came out at 1.6 nM. In test [1], it took 2.4 nM to reach half-maximal inhibition (IC50).

`Cc1sc2c(c1C)C(c1ccc(-c3ccc(C(=O)NCc4ccc(S(=O)(=O)Nc5ccc(C)c6c(C#N)c[nH]c56)cc4)cc3)cc1)=N[C@@H](CC(=O)OC(C)C)c1nnc(C)n1-2` [Example Compound 131, isopropyl [(6S)-4-{4′-[({4-[(3-cyano-4-methyl-1H-indol-7-yl)sulfamoyl]phenyl}methyl)carbamoyl][1,1′-biphenyl]-4-yl}-2,3,9-trimethyl-6H-thieno[3,2-f][1,2,4]triazolo[4,3-a][1,4]diazepin-6-yl]acetate] came in with a half-maximal degradation concentration (DC50) on BRD4 protein of 0.035 nM. In test [1], this compound had an IC50 of 0.065 nM.

In the case of `COC(=O)C[C@@H]1N=C(c2ccc(-c3ccc(C(=O)NCc4ccc(S(=O)(=O)Nc5ccc(C)c6c(C#N)c[nH]c56)cc4)cc3)cc2)c2cc(OC)ccc2-n2c(C)nnc21` [Example Compound 133, methyl [(4S)-6-{4′-[({4-[(3-cyano-4-methyl-1H-indol-7-yl)sulfamoyl]phenyl}methyl)carbamoyl][1,1′-biphenyl]-4-yl}-8-methoxy-1-methyl-4H-[1,2,4]triazolo[4,3-a][1,4]benzodiazepin-4-yl]acetate], at BRD4 protein, the DC50 was 0.34 nM. Further, the IC50 in test [1] stood at 0.49 nM.
